From patent US7323485B2, “4-(substituted cycloalkylmethyl) imidazole-2-thiones, 4-(substituted cycloalkenylmethyl) imidazole-2-thiones, 4-(substituted cycloalkylmethyl) imidazol-2-ones and 4-(substituted cycloalkenylmethyl) imidazol-2-ones and related compounds” (Allergan, Inc., priority 2002, dated 2008)
Like-named read-outs stand apart in the source and are kept apart here.

Legend:
[1] = tested on: rats with ligated L5 and L6 spinal nerves; assay: Chung model of neuropathic pain (tactile allodynia, von Frey hairs); type: in vivo; conditions: Rattus norvegicus, 0.5 h, 30 min following drug administration, read-out: % Pain Reversal ± SEM; for inhibition in vivo at 0.001 mg/kg: 1 μg/kg i.p.; for inhibition in vivo at 0.003 mg/kg: 3 μg/kg i.p.
From the text: A model in accordance with Kim and Chung 1992, Pain […], pp 355-363 (Chung model), for chronic pain (in particular peripheral neuropathy) involves the surgical ligation of the L5 (and optionally the L6) spinal nerves on one side in experimental animals. Rats recovering from the surgery gain weight and display a level of general activity similar to that of normal rats. However, these rats develop abnormalities of the foot, wherein the hindpaw is moderately everted and the toes are held together. More importantly, the hindpaw on the side affected by the surgery appears to become sensitive to pain from low-threshold mechanical stimuli, such as that producing a faint sensation of touch in a human, within about 1 week following surgery. This sensitivity to normally non-painful touch is called “tactile allodynia” and lasts for at least two months. The response includes lifting the affected hindpaw to escape from the stimulus, licking the paw and holding it in the air for many seconds. None of these responses is normally seen in the control group.
Rats are anesthetized before surgery. The surgical site is shaved and prepared either with betadine or Novacaine. Incision is made from the thoracic vertebra Xlll down toward the sacrum. Muscle tissue is separated from the spinal vertebra (left side) at the L4-S2 levels. The L6 vertebra is located and the transverse process is carefully removed with a small rongeur to expose the L4-L6 spinal nerves. The L5 and L6 spinal nerves are isolated and tightly ligated with 6-0 silk thread. The same procedure is done on the right side as a control, except no ligation of the spinal nerves is performed.
A complete hemostasis is confirmed, then the wounds are sutured. A small amount of antibiotic ointment is applied to the incised area, and the rat is transferred to the recovery plastic cage under a regulated heat-temperature lamp. On the day of the experiment, at least seven days after the surgery, typically six rats per test group are administered the test drugs by intraperitoneal (i.p.) injection or oral gavage. For i.p. injection, the compounds are formulated in approximately 10 to 50% DMSO and given in a volume of 1 ml/kg body weight.
Tactile allodynia is measured prior to and 30 minutes after drug administration using von Frey hairs that are a series of fine hairs with incremental differences in stiffness. Rats are placed in a plastic cage with a wire mesh bottom and allowed to acclimate for approximately 30 minutes. The von Frey hairs are applied perpendicularly through the mesh to the mid-plantar region of the rats' hindpaw with sufficient force to cause slight buckling and held for 6-8 seconds. The applied force has been calculated to range from 0.41 to 15.1 grams. If the paw is sharply withdrawn, it is considered a positive response. A normal animal will not respond to stimuli in this range, but a surgically ligated paw will be withdrawn in response to a 1-2 gram hair. The 50% paw withdrawal threshold is determined using the method of Dixon, W. J., Ann. Rev. Pharmacol. Toxicol. 20:441-462 (1980). The post-drug threshold is compared to the pre-drug threshold and the percent reversal of tactile sensitivity is calculated based on a normal threshold of 15.1 grams. The results are expressed in percent (%) MPE, where the MPE value reflects the percentage reversal of pain threshold to that of a normal animal (100%). Table 3 below indicates results of this test with Compounds 1, 7 and 29 of the invention, administered i.p. and in oral doses.

male Sprague-Dawley rats = assay: Sedative activity (exploratory behavior); type: in vivo, rat; conditions: intraperitoneally, up to a dose of 1 mg/kg
Procedure: To test sedation, six male Sprague-Dawley rats are given up to 3 mg/kg of the test compound in a saline or DMSO vehicle by intraperitoneal injection (i.p.). Sedation is graded 30 minutes following administration of the drug by monitoring locomotor skills as follows.
The Sprague-Dawley rats are weighed and 1 ml/kg body weight of an appropriate concentration (ie. 3 mg/ml for a final dose of 3 mg/kg) drug solution is injected intraperitoneally. Typically the test compound is formulated in approximately 10 to 50% DMSO. The results are compared to controls that are injected with 1 ml/kg saline or 10 to 50% DMSO. Rat activity is then determined 30 minutes after injection of the drug solution. Rats are placed in a dark covered chamber and a digicom analyzer (Omnitech Electronic) quantitates their exploratory behavior for a five-minute period. The machine records each time the rat interrupts an array of 32 photoelectric beams in the X and Y orientation.

| SMILES | inhibition in vivo at 0.001 mg/kg ([1]; ip) [%] | inhibition in vivo at 0.003 mg/kg ([1]; ip) [%] | inhibition in vivo at 0.01 mg/kg ([1]; ip, 10 μg/kg i.p.) [%] | inhibition in vivo at 0.03 mg/kg ([1]; ip, 30 μg/kg i.p.) [%] | inhibition in vivo at 0.1 mg/kg ([1]; ip, 100 μg/kg i.p.) [%] | inhibition in vivo at 0.03 mg/kg ([1]; po, 30 μg/kg p.o.) [%] | inhibition in vivo at 0.1 mg/kg ([1]; po, 100 μg/kg p.o.) [%] | inhibition in vivo at 0.3 mg/kg ([1]; po, 300 μg/kg p.o.) [%] | sedative effect (male Sprague-Dawley rats) | inhibition in vivo at 1 mg/kg ([1]; ip, 1000 μg/kg i.p.) [%] | inhibition in vivo at 0.01 mg/kg ([1]; po, 10 μg/kg p.o.) [%] | inhibition in vivo at 0.3 mg/kg ([1]; ip, 300 μg/kg i.p.) [%] | inhibition in vivo at 1 mg/kg ([1]; po, 1000 μg/kg p.o.) [%] |
| --- | --- | --- | --- | --- | --- | --- | --- | --- | --- | --- | --- | --- | --- |
| O=c1[nH]cc(CC2CCc3cc(F)ccc32)[nH]1 (stereo not drawn) [Compound 49, 4-(5-fluoro-indan-1-ylmethyl)-1,3-dihydro-imidazol-2-one] | 2.3 ± 1.3 | 23 ± 3.8 | 39 ± 7.7 | 72 ± 8.2 | 80 ± 6.5 | 43 ± 7.1 | 68 ± 4.8 | 74 ± 6.8 | no sedative effect | – | – | – | – |
| O=c1[nH]cc(C[C@H]2CCc3cc(F)ccc32)[nH]1 [Compound 61, R-(+)-4-(5-fluoro-indan-1-ylmethyl)-1,3-dihydro-imidazol-2-one] | – | – | – | – | – | – | – | – | no sedative effect | – | – | – | – |
| CC1=C(C)C(Cc2c[nH]c(=O)[nH]2)CC1 (stereo not drawn) [Compound 44, 4-(2,3-dimethyl-cyclopent-2-enylmethyl)-1,3-dihydro-imidazol-2-one] | 0.5 ± 2.9 | 24 ± 4.6 | 46 ± 9.1 | 62 ± 9.6 | 82 ± 5.8 | – | – | – | – | – | – | – | – |
| S=c1[nH]cc(CC2CCC3=C2CCC3)[nH]1 (stereo not drawn) [Compound 1, 4-(1,2,3,4,5,6-hexahydro-pentalen-1-ylmethyl)-1,3-dihydro-imidazole-2-thione] | – | – | – | 9 ± 2 | 13 ± 2 | – | 29 ± 5 | – | – | 44 ± 7 | – | – | – |
| O=c1[nH]cc(CC2CCC3=C2CCC3)[nH]1 (stereo not drawn) [Compound 41, 4-(1,2,3,4,5,6-Hexahydro-pentalen-1-ylmethyl)-1,3-dihydro-imidazol-2-one] | – | – | 3 ± 1.6 | 71 ± 2.8 | 13 ± 1 | – | – | – | – | – | – | – | – |
| O=C1c2ccccc2CCC1Cc1c[nH]c(=S)[nH]1 (single isomer, unassigned) [Compound 23, 2-(2-thioxo-2,3-dihydro-1H-imidazol-4-ylmethyl)-3,4-dihydro-2H-naphthalen-1-one] | 0.7 ± 0.8 | 59 ± 5.8 | 74 ± 6.1 | 69 ± 10 | – | – | – | – | no sedative effect | – | – | – | – |
| S=c1[nH]cc(CC2CCc3ccccc32)[nH]1 (stereo not drawn) [Compound 7, 4-indan-1-ylmethyl-1,3-dihydro-imidazole-2-thione] | 1 ± 1 | 23 ± 4 | 58 ± 8 | 85 ± 6 | 89 ± 7 | 56 ± 10 | 58 ± 8 | 61 ± 6 | – | – | 1 ± 1 | – | – |
| S=c1[nH]cc(CC2CC=CC2)[nH]1 [Compound 18, 4-cyclopent-3-enylmethyl-1,3-dihydro-imidazole-2-thione] | – | – | 5 ± 2.5 | 35 ± 5.2 | 72 ± 6.6 | 1 ± 2 | 68 ± 4.4 | 82 ± 5.9 | no sedative effect | – | – | 71 ± 6.4 | 82 ± 8.1 |
